In series [1] the test system is BT-474. The series can be described thus: Antiproliferative activity against trastuzumab-sensitive HER2-positive human BT-474 cells assessed as cell viability at 10 uM after 72 hrs by MTS assay. Format: functional. The following applies: read-out: Activity.
In series [2] the test system is JIMT-1. The series can be described thus: Antiproliferative activity against trastuzumab-resistant HER2-positive human JIMT-1 cells assessed as cell viability at 10 uM after 72 hrs by MTS assay. It counts as functional. As to conditions: read-out: Activity; call rule not given here.
The next series concerns HEK293. Nature of the series: Cytotoxicity against human HEK293 cells assessed as reduction in cell viability at 10 uM after 72 hrs by MTS assay. The following applies: hek293, 72 h. Format: cell-based.
Series [3] relates to BT-474. Nature of the series: Antiproliferative activity against trastuzumab-sensitive HER2-positive human BT-474 cells assessed as reduction in cell viability after 72 hrs by MTS assay. It counts as functional, cell-based. The following applies: dose 0.1-20 µM.
Another series has as its system SK-BR-3. Nature of the series: Antiproliferative activity against trastuzumab-sensitive human SK-BR-3 cells assessed as reduction in cell viability after 72 hrs by MTS assay. It counts as functional, cell-based. The following applies: dose 0.1-20 µM.
For series [4], the system named is JIMT-1. Nature of the series: Antiproliferative activity against trastuzumab-resistant HER2-positive human JIMT-1 cells assessed as reduction in cell viability after 72 hrs by MTS assay. Format: functional, cell-based. The following applies: dose 0.1-20 µM.
The next series relates to MDA-MB-453. The series can be described thus: Antiproliferative activity against trastuzumab-resistant human MDA-MB-453 cells assessed as reduction in cell viability after 72 hrs by MTS assay. The following applies: dose 0.1-20 µM. Format: functional, cell-based.
The target in series [5] is T1, Heat shock protein HSP90 (Homo sapiens, UniProt P07900+P08238). The series can be described thus: Inhibition of HSP90 at N-terminus in human BT-474 cells assessed as increase in nuclear HSF1 protein level at 10 uM incubated for 24 hrs by immunostaining analysis. It counts as cell-based. As to conditions: bt-474, 24 h.
Series [6] addresses T1, Heat shock protein HSP90. Nature of the series: Inhibition of HSP90 at N-terminus in human BT-474 cells assessed as increase in cytosolic HSP90 protein level at 10 uM incubated for 24 hrs by immunostaining analysis. Format: cell-based. As to conditions: bt-474, 24 h.
Series [7] deals with T1, Heat shock protein HSP90. The series can be described thus: Inhibition of HSP90 at C-terminus in trastuzumab-sensitive human BT-474 cells assessed as downregulation of HER2 protein expression incubated for 72 hrs by Western blot analysis. It counts as cell-based. As to conditions: dose 2-10 µM.
Series [8] concerns the target T1, Heat shock protein HSP90. The series can be described thus: Inhibition of HSP90 at C-terminus in trastuzumab-resistant human […] cells assessed as downregulation of HER2 protein expression incubated for 72 hrs by Western blot analysis. Format: cell-based. As to conditions: JIMT-1, dose 2-10 µM.
In series [9] the target is T1, Heat shock protein HSP90. Nature of the series: Inhibition of HSP90 at C-terminus in trastuzumab-sensitive human BT-474 cells assessed as downregulation of Akt protein expression incubated for 72 hrs by Western blot analysis. It counts as cell-based. The following applies: dose 2-10 µM.
The target of series [10] is T1, Heat shock protein HSP90. The series can be described thus: Inhibition of HSP90 at C-terminus in trastuzumab-resistant human […] cells assessed as downregulation of Akt protein expression incubated for 72 hrs by Western blot analysis. As to conditions: JIMT-1, dose 2-10 µM. It counts as cell-based.
In series [11] the target is T1, Heat shock protein HSP90. The series can be described thus: Inhibition of HSP90 at C-terminus in trastuzumab-sensitive human BT-474 cells assessed as downregulation of cyclinD1 protein expression incubated for 72 hrs by Western blot analysis. It counts as cell-based. The following applies: dose 2-10 µM.
In series [12] the target is T1, Heat shock protein HSP90. Nature of the series: Inhibition of HSP90 at C-terminus in trastuzumab-resistant human […] cells assessed as downregulation of cyclinD1 protein expression incubated for 72 hrs by Western blot analysis. Format: cell-based. As to conditions: JIMT-1, dose 2-10 µM.
Series [13] concerns the target T1, Heat shock protein HSP90. Nature of the series: Inhibition of HSP90 at C-terminus in trastuzumab-sensitive human BT-474 cells assessed as downregulation of survivin protein expression incubated for 72 hrs by Western blot analysis. The following applies: dose 2-10 µM. It counts as cell-based.
Series [14] addresses T1, Heat shock protein HSP90. Nature of the series: Inhibition of HSP90 at C-terminus in trastuzumab-resistant human […] cells assessed as downregulation of survivin protein expression incubated for 72 hrs by Western blot analysis. It counts as cell-based. As to conditions: JIMT-1, dose 2-10 µM.

Structures are written as SMILES.

These results are taken from ChEMBL document CHEMBL4811280, “Discovery of a simplified deguelin analog as an HSP90 C-terminal inhibitor for HER2-positive breast cancer” (Bioorg Med Chem Lett, 2021).

On to `COc1cc2c(C(OC(=O)C3CC3)c3ccc4c(c3OC)C=CC(C)(C)O4)ccnc2cc1OCCCN1CCN(C)CC1` (configuration not stated), for which the viability at 10 µM in the series on BT-474 [1] and with JIMT-1 [2] was < 20% throughout. Further, the Activity entry with HEK293 is “Toxic”; in the series with BT-474 [3], “Dose-Dependent Effect”; in the series on SK-BR-3, “Dose-Dependent Effect”; with JIMT-1 [4], “Dose-Dependent Effect”; in the series on MDA-MB-453, “Dose-Dependent Effect”. Also, the “inhibition (INH)” value on Heat shock protein HSP90 [5] and at Heat shock protein HSP90 [6] was “Not Active” each time. For the same compound, the inhibition entry on Heat shock protein HSP90 [7], at Heat shock protein HSP90 [8], at Heat shock protein HSP90 [9], on Heat shock protein HSP90 [10], at Heat shock protein HSP90 [11] and on Heat shock protein HSP90 [12] was “Dose-Dependent Effect” each time. Moreover, the inhibition entry at Heat shock protein HSP90 [13] and at Heat shock protein HSP90 [14] was “Dose-Dependent Effect” each time.
